Measured values as given in patent publication US8658226B2, “Agent having anti-Helicobacter pylori activity” (Japan Royal Jelly Co., Ltd., priority 2008, dated 2014).
In brackets after ≈: the same amount, converted by molar mass.

Test system: Helicobacter pylori
Experiment: Measurement of anti-Helicobacter pylori activity by the paper disk method
Type: cell-based
Method: Measurement of anti-Helicobacter pylori activity was carried out by the paper disk method using Helicobacter pylori agar culture medium (Pore […] Chemical). After coating Helicobacter pylori over the entire surface of this medium, a thick circular piece of filter paper (Advantec) having a diameter of 8 mm impermeated with 60 μl of extract was placed on the medium followed by culturing in the presence of 10% carbon dioxide gas. After culturing for 3 to 4 days, the size of the zone of inhibition of Helicobacter pylori growth formed around the filter paper was observed. A piece of filter paper impermeated with chloramphenicol (CM, 100 μg/ml) was also placed on the medium as a positive control, while a piece of filter paper impermeated with PBS was placed on the medium as a negative control.

O=C(N[C@H](CO)[C@H](O)c1ccc([N+](=O)[O-])cc1)C(Cl)Cl [chloramphenicol]
MIC (Helicobacter pylori, assumed from paper disk method, read-out: minimum inhibitory concentration (MIC)): ~5 µg/mL (≈ 15.5 µM) | antibacterial activity of chloramphenicol (at a concentration of 5 μg/ml): essentially no longer observed
